Laboratory results: ChEMBL document CHEMBL1126601, “Synthesis of a photoaffinity analog of taxol as an approach to identify the taxol binding site on microtubules” (J Med Chem, 1993)

Columns and labels:
[1] = tested on: J774; experiment: Drug concentration that inhibits cell division by 50% after 72 hr incubation for murine like macrophage cell line J774.2; assay type: functional; conditions: Mus musculus, J774, 72 h; read-out: ED50 (the source's name)
[2] = species: Mus musculus; experiment: Ability to inhibit binding of [3H]taxol was determined; assay type: functional

## CC(=O)O[C@H]1C(=O)[C@@]2(C)C([C@H](CC(=O)c3ccccc3)[C@]3(O)C[C@H](OC(=O)[C@H](O)C(NC(=O)c4ccccc4)c4ccccc4)C(C)=C1C3(C)C)[C@]1(OC(C)=O)CO[C@@H]1C[C@@H]2O (some centres not stated)
[1]
  EC50: 50 nM
[2]
  Ki: 2000 nM
